According to patent US10682371B2, “Small molecule conjugates specifically activated in tumor microenvironment for targeting and use thereof” (priority 2014, dated 2020):
Where two headings read alike, the source gives them in different places.

What was measured:
D121 lung tumor cells = assay type: in vivo, C57 mice; details: drugs weekly for 4 weeks
Description: (§1) 1) D121 lung tumor cells were purchased from ATCC. Cells were cultivated in DMEM culture solution containing 10% fetal bovine serum at 37° C. and 5% CO2. The cells were passaged for every three days and cells within the 15th passage were used.
(§2) 2) Tumor immunization. 5×10^5 D121 lung cancer cells (purchased from ATCC) which were killed by irradiation were intraperitoneally injected to mice. The mice were injected for 3 times, once every two weeks. After immunization, mice were injected with tumor cells and the drugs were administered weekly for 4 weeks.
3) Production of tumor. At day 32, 10^6 live lung tumor cells were subcutaneously injected to the back of the C57 mice immunized by tumor. Treatment began when the tumor grew to 0.3-0.4 cm.
as §2, with “4 weeks. In table 16 below the immune group was immuned with D121 lung tumor cells and the group without dead D121 lung tumor cells was injected with physiological saline as controls.” for “4 weeks.”
3) Production of tumor. After immunization (4 weeks later), 10^6 live lung tumor cells were subcutaneously injected to the back of the C57 mice immunized by tumor. Treatment began when the tumor grew to 0.3-0.4 cm. Tumor size (mm^3) were noted and tumor inhibition rates were calculated.
as §2, with “4 weeks. In the table below the immune group was immuned with D121 lung tumor cells and the group without dead D121 lung tumor cells was injected with physiological saline as controls.” for “4 weeks.”
3) Production of tumor. At day 32, 10^6 live D121 lung tumor cells were subcutaneously injected to the back of the C57 mice immunized by tumor. Treatment began when the tumor grew to 0.3-0.4 cm.
1) D121 lung tumor cells were purposed from ATCC. Cells were cultivated in DMEM culture solution containing 10% fetal bovine serum at 37° C. and 5% CO2. The cells were passaged for every three days and cells within the 15th passage were used.

tumor CD8+ T cells = assay type: in vivo, C57 mice; details: CD8 positive cells in CD45 positive cells of tumor
Description: (§3) 4) Analysis on tumor CD8+ T cells. The tumor tissue was homogenated and individual cells in the tumor were filtered, separated and washed by buffer twice, then cultivated with the leucocyte common antigen CD45-PE and CD8-FITC marked antibodies for 1 hour at ambient temperature. The cells were washed by phosphate buffer containing 1% fetal bovine serum twice and then analyzed for the ratio of the T lymphocyte antigen (CD8) positive cells in the leucocyte common antigen (CD45) positive cells by flow cytometry.
as §3, with “CD45-PE and T-lymphocyte antigen CD8-FITC marked” for “CD45-PE and CD8-FITC marked”, “flow cytometry. Increasement of the ratio indicates increased T lymphocyte cells and thus the animal immunity against the tumor was improved.” for “flow cytometry.”
as §3, with “cytometry. Increasement of the ratio indicates increased T lymphocyte cells and thus the animal immunity against the tumor was improved.” for “cytometry.”

[1] = test system: Human prostate cancer PC-3 cells / Panc-1 cells; assay: Tumor treatment in nude mice (PC-3 cells purchased, Panc-1 cells injected; Examples 22, 32, 42); assay type: in vivo; details: nude mice, IV once weekly for four weeks, Paclitaxel 8 mg/kg
Description: as §1, with “Human prostate cancer PC-3” for “D121 lung tumor”, “from American type culture collection (ATCC) and identified according the specification provided by” for “from”
2) Production of tumor. 5×10^6Panc-1 cells were subcutaneously injected to the back of the nude mice. Mice were randomly grouped after the tumor reached at least 100 mm^3. Then treatment began and the day on which the treatment began was day 1.
The control group was administered by physiological saline. Drugs were administered once weekly for four weeks.
According to the clinical application of B1, B2, B3 and B4, drugs were intravenously injected (IV). […] The control group was administered by physiological saline. Drugs were administered once weekly for four weeks.

4T1 cells = assay: BALB/C mice model for tumor metastasis (4T1, lung metastases); assay type: in vivo; details: IV every three days for 4 times, Paclitaxel 4 mg/kg
Description: as §1, with “4T1” for “D121 lung tumor”, “from American type culture collection (ATCC) and identified according the specification provided by” for “from”
2) Production of tumor metastasis. 10^6 […] were subcutaneously injected to the back of the BALB/C mice. Mice were randomly grouped after the tumor grew to about 1.5 cm. The subcutaneous tumor was removed by surgery and drug treatment began. Mice were killed after anesthesia on day 27. The whole lung was taken out and put into Bouin's solution for staining. The number of the tumor metastasized to lung was counted with anatomical microscope.
(§4) The control group was administered by physiological saline. Drugs were administered once for every three days for 4 times.
as §4
According to the clinical application of B1, B2, B3 and B4, drugs were intravenously injected (IV). […] The control group was administered by physiological saline. Drugs were administered once for every three days for 4 times.
According to the clinical application of D1, D2, D3 and D4, drugs were intravenously injected (IV). […] The control group was administered by physiological saline. Drugs were administered once for every three days for 4 times.

[2] = test system: tumor-derived immunosuppressive T cells (T reg: CD4+, CD25+, Foxp3+); CD8 T cells; assay: Immunological stimulation test in mice receiving tumor treatment (T reg, CD8 T cells); assay type: in vivo; details: mice receiving tumor treatment
Text: We further studied the immunological stimulation property of Legutaxel. […] On the contrary, the index for tumor-derived immunosuppressive T cells in treatment group by Legutaxel decreased due to targeted chemotherapy (see panels in FIGS. 3A and 3B).

[3] = D121 immunized C57 mice, Day 18 (Example 23)
[4] = Table 26, A1-A4 24 mg/kg, Day 10
[5] = 4T1, BALB/C mice, lung, day 27, S1′-S4′ 12 mg/kg
[6] = Table 28, BALB/C mice, 4T1, lung metastases day 27, A1-A4 12 mg/kg

Substance: Paclitaxel [reference compound]
- Size of tumor (mm^3) Day 18 (D121 lung tumor cells; [3]): 1210.28 ± 375.46 mm^3
- inhibitory rate on tumor % Day 18 (D121 lung tumor cells; [3]): 23.1%
- inhibitory rate on tumor % Day 18 (D121 lung tumor cells; Table 27, immunized C57 mice, D121 lung tumor, Day 18): 20.47%
- CD8: CD45 (%) (tumor CD8+ T cells; D121 immunized C57 mice (Example 23)): 6.6%
- CD8: CD45 (%) (tumor CD8+ T cells; Table 27, flow cytometry, immunized C57 mice, D121): 5.7%
- Size of tumor (mm^3) Day 10 [1, 4]: 123.04 ± 125.3 mm^3
- inhibitory rate on tumor Day 10 [1, 4]: 58.3%
- Size of tumor (mm^3) Day 24 ([1]; Table 26, A1-A4 24 mg/kg): 252.49 ± 248.5 mm^3
- inhibitory rate on tumor Day 24 ([1]; Table 26, A1-A4 24 mg/kg): 33.7%
- inhibitory rate on tumor Day 10 ([1]; S1′-S4′ 24 mg/kg, Day 10): 7.5%
- Size of tumor (mm^3) Day 24 ([1]; S1′-S4′ 24 mg/kg): 249.54 ± 95.46 mm^3
- inhibitory rate on tumor Day 24 ([1]; S1′-S4′ 24 mg/kg): 27.9%
- Inhibitory rate on metastasis (4T1 cells; [5]): 5.9%
- Number of metastasized tumor (4T1 cells; [5]): 128 ± 25
- Inhibitory rate on metastasis (4T1 cells; [6]): 6.8%
- Number of metastasized tumor (4T1 cells; [6]): 137 ± 32
- Index for tumor-derived immunosuppressive T cells (T reg: CD4+, CD25+, Foxp3+) [2]: greatly increased
